Reference: US5869489A, “Trypthophan ureas as neurokinnin antagonists” (Merck & Co., Inc., priority 1997, dated 1999)
Where two headings read alike, the source gives them in different places.

Experiments:
human NK1R = molecular target: T1, human NK1R (Homo sapiens, UniProt P25103); test: Binding assay of human NK1R expressed in COS or CHO cells, displacement of 125I-substance P (Table 1, hNK1)
T1 construct: expressed in transfected cells
Procedure: (§1) A. Receptor Expression in COS
(§2) To express the cloned human neurokinin-1 receptor (NK 1R) transiently in COS, the cDNA for the human NK 1R was cloned into the expression vector pCDM9 which was derived from pCDM 8 (INVITROGEN) by inserting the ampicillin resistance gene (nucleotide 1973 to 2964 from BLUESCRIPT SK+) into the Sac II site. Transfection of 20 μg of the plasmid DNA into 10 million COS cells was achieved by electroporation in 800 μl of transfection buffer (135 mM NaCl, 1.2 mM CaCl2, 1.2 mM MgCl2, 2.4 mM K2 HPO4, 0.6 mM KH2 PO4, 10 mM glucose, 10 mM HEPES pH 7.4) at 260 V and 950 uF using the IBI GENEZAPPER (IBI, New Haven, Conn.). The cells were incubated in 10% fetal calf serum, 2 mM glutamine, 100 U/ml penicillin-streptomycin, and 90% DMEM media (GIBCO, Grand Island, N.Y.) in 5% CO2 at 37° C. for three days before the binding assay. Similar methods were used to express the NK2 receptor.
(§3) B. Stable Expression in CHO
(§4) To establish a stable cell line expressing the cloned human NK1R, the cDNA was subcloned into the vector pRcCMV (INVITROGEN). Transfection of 20 μg of the plasmid DNA into CHO cells was achieved by electroporation in 800 μl of transfection buffer suplemented with 0.625 mg/ml Herring sperm DNA at 300 V and 950 uF using the IBI GENEZAPPER (IBI). The transfected cells were incubated in CHO media (10% fetal calf serum, 100 U/ml pennicilin-streptomycin, 2 mM glutamine, 1/500 hypoxanthine-thymidine(ATCC), 90% IMDM media (JRH BIOSCIENCES, Lenexa, Kans.), 0.7 mg/ml G418 (GIBCO)) in 5% CO2 at 37° C. until colonies were visible. Each colony was separated and propagated. The cell clone with the highest number of human NK1R was selected for subsequent applications such as drug screening. Similar methods were used to express the human NK2 receptor.
(§5) C. Assay Protocol using COS or CHO The binding assay of human NK1R expressed in either COS or CHO cells is based on the use of ^125 I-substance P (^125 I-SP, from DU PONT, Boston, Mass.) as a radioactively labeled ligand which competes with unlabeled substance P or any other ligand for binding to the human NK1R. […] In the binding assay, 500 μl of cells were added to a tube containing 20 μl of 1.5 to 0.25 nM of ^125 I-SP and 5 μl of unlabeled substance P or any other test compound in DMSO. The tubes were incubated at 4° C. or at room temperature for 1 hour with gentle shaking. The bound radioactivity was separated from unbound radioactivity by GF/C filter (BRANDEL, Gaithersburg, Md.) which was pre-wetted with 0.1% polyethylenimine. The filter was washed with 3 ml of wash buffer (50 mM Tris pH 7.5, 5 mM MnCl2, 150 mM NaCl) three times and its radioactivity was determined by gamma counter. A similar assay was used for NK2 except ^125 I-NKA was used as the ligand.

human NK2 receptor = molecular target: T2, human NK2 receptor (Homo sapiens, UniProt P21452); test: Binding assay of NK2 receptor expressed in COS or CHO cells, displacement of 125I-NKA (Table 1, hNK2)
T2 construct: expressed in transfected cells
T2 sequence (P21452 1-398): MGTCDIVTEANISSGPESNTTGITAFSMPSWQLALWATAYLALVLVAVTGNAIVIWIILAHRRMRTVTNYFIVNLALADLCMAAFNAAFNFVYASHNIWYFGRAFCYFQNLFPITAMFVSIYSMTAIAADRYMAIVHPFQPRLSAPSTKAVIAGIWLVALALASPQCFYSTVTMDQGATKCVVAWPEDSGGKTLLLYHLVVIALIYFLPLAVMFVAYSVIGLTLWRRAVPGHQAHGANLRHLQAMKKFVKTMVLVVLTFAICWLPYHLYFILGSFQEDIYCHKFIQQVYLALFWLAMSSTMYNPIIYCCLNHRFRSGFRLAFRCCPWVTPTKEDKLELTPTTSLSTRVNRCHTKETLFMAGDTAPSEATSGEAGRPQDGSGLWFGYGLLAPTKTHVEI
Procedure: as §1, §2, §3, §4, §5

[1] = human NK1 receptor, 125I-substance P ligand, read-out: hNK1 (IC50 nM)
[2] = human NK2 receptor, 125I-NKA ligand, read-out: hNK2 (IC50 nM)

T1 sequence (P25103 whole entry): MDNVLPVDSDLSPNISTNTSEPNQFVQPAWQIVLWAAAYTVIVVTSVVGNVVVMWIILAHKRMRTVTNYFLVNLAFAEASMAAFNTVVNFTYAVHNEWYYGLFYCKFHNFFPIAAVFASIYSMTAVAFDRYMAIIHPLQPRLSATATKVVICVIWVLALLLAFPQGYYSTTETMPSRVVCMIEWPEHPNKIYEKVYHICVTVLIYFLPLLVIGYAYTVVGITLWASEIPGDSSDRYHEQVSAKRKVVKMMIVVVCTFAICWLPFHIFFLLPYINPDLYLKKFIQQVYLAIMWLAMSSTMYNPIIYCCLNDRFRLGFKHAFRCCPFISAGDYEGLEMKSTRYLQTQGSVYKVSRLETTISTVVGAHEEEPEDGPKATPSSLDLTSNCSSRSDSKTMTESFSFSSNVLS

Row | Molecule | IC50 (human NK1R; [1]) [nM] | IC50 (human NK2 receptor; [2]) [nM] | IC50 (human NK1R) [nM] | IC50 (human NK2 receptor) [nM]
1 | CN(Cc1ccccc1)C(=O)[C@H](CCc1ccccc1)NC(=O)N1CCC2(CC1)CN(S(C)(=O)=O)c1ccccc12 [Example 34, N-Benzyl-N-methyl-2-(S)-((1-methanesulfonyl-spiroindoline-3,4'-piperidino)-carbonyl-amino)-4-phenylbutyramide] | 400 | 60 | – | –
2 | CC(=O)N1CC2(CCN(C(=O)N[C@@H](Cc3c[nH]c4ccccc34)C(=O)N(C)Cc3ccccc3)CC2)c2ccccc21 [Example 6, N-Benzyl-N-methyl-2-(S)-((1-acetylspiroindoline-3,4'-piperidino)-carbonyl-amino)-3-(3-indolyl)propionamide] | 15 | 30 | – | –
3 | O=C(NCc1ccccc1)[C@H](Cc1c[nH]c2ccccc12)NC(=O)N1CCC2(CCc3ccccc32)CC1 [Example 15, N-Benzyl-2-(S)-((spiroindane-1,4'-piperidino)-carbonyl-amino)-3-(3-indolyl)propionamide] | 100 | 35 | – | –
4 | CN(Cc1ccccc1)C(=O)[C@H](Cc1c[nH]c2ccccc12)NC(=O)N1CCC2(CCc3ccccc32)CC1 [Example 4, N-Benzyl-N-methyl-2-(S)-((spiroindane-1,4'-piperidino)-carbonyl-amino)-3-(3-indolyl)propionamide] | 50 | 8 | – | –
5 | CN(Cc1cc(Cl)cc(Cl)c1)C(=O)[C@H](Cc1c[nH]c2ccccc12)NC(=O)N1CCC2(CC1)CN(S(C)(=O)=O)c1ccccc12 [Example 27, N-(3,5-Dichlorophenyl)methyl-N-methyl-2-(S)-((1-methanesulfonyl-spiroindoline-3,4'-piperidino)-carbonyl-amino)-3-(3-indolyl)propionamide] | 1 | 180 | – | –
6 | C[C@@H](NC(=O)[C@H](Cc1c[nH]c2ccccc12)NC(=O)N1CCC2(CCc3ccccc32)CC1)c1ccccc1 [Example 22, N-(1(R)-Phenylethyl)-2(S)-((spiroindane-1,4'-piperidino)-carbonyl-amino)-3-(3-indolyl)propionamide] | 1000 | 28 | – | –
7 | CN(Cc1ccccc1)C(=O)[C@@H](Cc1c[nH]c2ccccc12)NC(=O)N1CCC(c2ccccc2)CC1 [Example 33] | 750 | 250 | – | –
8 | CN(Cc1ccccc1)C(=O)[C@H](Cc1c[nH]c2ccccc12)NC(=O)N1CCC2(C=Cc3ccccc32)CC1 [Example 1, N-Benzyl-N-methyl-2-(S)-((spiro-1H-indene-1,4'-piperidino)-carbonyl-amino)-3-(3-indolyl)propionamide] | 40 | 10 | – | –
9 | O=C(OCc1cc(C(F)(F)F)cc(C(F)(F)F)c1)[C@H](Cc1c[nH]c2ccccc12)NC(=O)N1CCC2(C=Cc3ccccc32)CC1 [Example 3, 3,5-Bistrifluoromethylbenzyl 2-(S)-((spiro-1H-indene-1,4'-piperidino)-carbonyl-amino)-3-(3-indolyl)propionate] | 1 | > 1000 | – | –
10 | CN(Cc1ccccc1)C(=O)[C@@H](Cc1c[nH]c2ccccc12)NC(=O)N1CCC2(C=Cc3ccccc32)CC1 [Example 31, N-Benzyl-N-methyl-2-(R)-((spiro-1H-indene-1,4'-piperidino)-carbonyl-amino)-3-(3-indolyl)propionamide] | 600 | 130 | – | –
11 | N-(1(R)-Phenylpropyl)-N-methyl-2(S)-((spiroindane-1,4'-piperidino)-carbonyl-amino)-3-(3-indolyl)propionamide [Example 24] | 1000 | 50 | – | –
12 | Cc1cccc(CNC(=O)[C@H](Cc2c[nH]c3ccccc23)NC(=O)N2CCC3(CCc4ccccc43)CC2)c1 [Example 17, N-(3-Methylbenzyl)-2-(S)-((spiroindane-1,4'-piperidino)-carbonyl-amino)-3-(3-indolyl)propionamide] | 60 | 65 | – | –
13 | CN(Cc1ccccc1)C(=O)[C@H](Cc1c[nH]c2ccccc12)NC(=O)N1CCC(N2C(=O)NCc3ccccc32)CC1 [Example 11] | – | – | 100 | 60
14 | CS(=O)(=O)N1CC2(CCN(C(=O)N[C@@H](Cc3c[nH]c4ccccc34)C(=O)NCc3ccccc3)CC2)c2ccccc21 [Example 2, N-Benzyl-2-(S)-((1-methanesulfonyl-spiroindoline-3,4'-piperidino)-carbonyl-amino)-3-(3-indolyl)propionamide] | 70 | 40 | – | –
15 | O=C(Nc1ccccc1)[C@H](Cc1c[nH]c2ccccc12)NC(=O)N1CCC2(CCc3ccccc32)CC1 [Example 14, N-Phenyl-2-(S)-((spiroindane-1,4'-piperidino)-carbonyl-amino)-3-(3-indolyl)propionamide] | > 1000 | 650 | – | –
16 | O=C(NCCc1ccccc1)[C@H](Cc1c[nH]c2ccccc12)NC(=O)N1CCC2(CCc3ccccc32)CC1 [Example 19] | 200 | 56 | – | –
17 | CN(Cc1ccccc1)C(=O)[C@@H](Cc1c[nH]c2ccccc12)NC(=O)N1CCC2(CC1)CN(S(C)(=O)=O)c1ccccc12 [Example 32, N-Benzyl-N-methyl-2-(R)-((1-methanesulfonyl-spiroindoline-3,4'-piperidino)-carbonyl-amino)-3-(3-indolyl)propionamide] | 200 | 180 | – | –
18 | CN(Cc1ccccc1)C(=O)[C@H](Cc1c[nH]c2ccccc12)NC(=O)N1CCN(Cc2ccccc2)CC1 [Example 10, N-Benzyl-N-methyl-2-(S)-((4-benzylpiperazino)-carbonyl-amino)-3-(3-indolyl)propionamide] | 60 | 100 | – | –
19 | N-(1(S)-phenyl)ethyl-N-methyl-2-(S)-((1-methanesulfonyl-spiroindoline-3,4'- piperidino)-carbonyl-amino)-3-(3-indolyl)propionamide [Example 30] | 10 | 70 | – | –
20 | CN(Cc1ccccc1)C(=O)[C@H](Cc1c[nH]c2ccccc12)NC(=O)N1CCC2(CC1)CN(S(C)(=O)=O)c1ccccc12 [Example 5, N-Benzyl-N-methyl-2-(S)-((1-methanesulfonyl-spiroindoline-3,4'-piperidino)-carbonyl-amino)-3-(3-indolyl)propionamide] | 20 | 12 | – | –
21 | Cc1cc(Cl)cc(CN(C)C(=O)[C@H](Cc2c[nH]c3ccccc23)NC(=O)N2CCC3(CC2)CN(S(C)(=O)=O)c2ccccc23)c1 [Example 29, N-((3-Chloro-5-methyl)phenyl)methyl-N-methyl-2-(S)-((1-methanesulfonyl-Spiroindoline-3,4'-piperidino)-carbonyl-amino)-3-(3-indolyl)propionamide] | 2 | 500 | – | –
22 | CN(Cc1ccccc1)C(=O)[C@H](Cc1ccccc1)NC(=O)N1CCC2(C=Cc3ccccc32)CC1 [Example 36, N-Benzyl-N-methyl-2-(S)-((spiroindine-1,4'-piperidino)-carbonyl-amino)-3-phenylpropionamide] | 300 | 200 | – | –
23 | CN(Cc1cccc(C(F)(F)F)c1)C(=O)[C@H](Cc1c[nH]c2ccccc12)NC(=O)N1CCC2(CC1)CN(S(C)(=O)=O)c1ccccc12 [Example 26, N-(3-Trifluoromethylphenyl)methyl-N-methyl-2-(S)-((1-methanesulfonyl-spiroindoline-3,4'-piperidino)-carbonyl-amino)-3-(3-indolyl)propionamide] | 7.5 | 127 | – | –
